This is an account of results in patent US20220204473A1, “COMPOUND AS IRAK INHIBITOR” (SHANGHAI MEIYUE BIOTECH DEVELOPMENT CO., LTD., priority 2018, published 2022).

Molecules are shown by their SMILES. Read-outs that look alike come from different tables or passages of the source.

The target of series [1] is T1, human IRAK4 (Homo sapiens, UniProt Q9NWZ3).
T1 construct: purchased Cama (so in the source)
T1 sequence (Q9NWZ3 1-460): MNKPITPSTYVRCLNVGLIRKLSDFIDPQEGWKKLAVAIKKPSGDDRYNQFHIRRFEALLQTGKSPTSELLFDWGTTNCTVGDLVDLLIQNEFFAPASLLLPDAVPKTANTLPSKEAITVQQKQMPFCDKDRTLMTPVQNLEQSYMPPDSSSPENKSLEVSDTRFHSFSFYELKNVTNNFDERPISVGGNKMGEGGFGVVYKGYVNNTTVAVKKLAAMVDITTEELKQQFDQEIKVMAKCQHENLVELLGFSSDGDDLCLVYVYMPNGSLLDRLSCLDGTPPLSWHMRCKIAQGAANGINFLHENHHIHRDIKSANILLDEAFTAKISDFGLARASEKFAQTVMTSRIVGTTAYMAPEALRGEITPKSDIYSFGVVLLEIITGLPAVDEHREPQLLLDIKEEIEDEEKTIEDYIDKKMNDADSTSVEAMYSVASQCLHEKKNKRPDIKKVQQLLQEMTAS
Nature of the series: IRAK4 MSA (Mobility-Shift Assay) at Km ATP. The series is classed as biochemical. As to conditions: GST-IRAK4 1 nM, ATP 37 μM (Km); read-out: IC50 for inhibiting human IRAK4 kinase. As to the method:
A recombinant fusion protein of N-terminal GST (glutathione-S-transferase) and human IRAK4 was used as enzyme (GST-IRAK4, kinase IRAK4 (Cama)) at a final concentration of 1 nM; ATP (Sigma) was at a final concentration of 37 μM; the substrates used for the kinase reaction were a 5-FAM (5-carboxyfluorescein)-labeled polypeptide (5-FAM-[…]-COOH) and a substrate peptide FAM-P8 (GL Biochem) at final concentrations of […].
In this assay, 500 μM solutions of the compounds were prepared in 100% DMSO, and serially 4-fold diluted to the 10th concentration gradient with 100% DMSO, followed by a 10-fold dilution in the compound buffer (50 mM HEPES. pH 7.5, 0.00015% Brij-35) to give intermediate dilutions of the compounds at a final concentration of 10 μM-0.04 nM containing 10% DMSO respectively, 5 μL of the dilutions were transferred into a black 384-well plate respectively.
IRAK4 was diluted to 2.5 nM in the kinase buffer (50 mM HEPES, pH 7.5, 0.00015% Brij-35, 2 mM DTT). 10 μL of the IRAK4 dilution was transferred to the 384-well plate and co-incubated with the compound for 10-15 min.
The substrate and ATP were diluted to 12.5 μM and 92.5 μM with reaction buffer (50 mM HEPES, pH 7.5, 0.00015% Brij-35, 10 mM MgCl2), respectively. 10 μL of the dilutions were transferred to a 384-well plate and incubated at 28° C. for 1 h respectively. The reaction was terminated by adding 25 μL of 50 mM EDTA to the 384-well plate.
The inhibition rates of IRAK4 by the compounds were calculated by measuring the rate of phosphorylated substrate using a Caliper EZ Reader (PerkinElmer) and the IC50 values were calculated by XL-fit software.

Series [2] can be described thus: PK assay in rat (intravenous injection and oral gavage). The series is classed as in vivo. As to conditions: plasma, male SD rat; for Cmax: read-out: Peak concentration Cmax; for AUC(0-t): read-out: Area under curve AUC0-t; for AUC(0-inf): read-out: Area under curve AUC0-∞; for MRT: read-out: Average retention time MRT; for half-life: read-out: Half life t1/2 (converted). How it is done: The rats used for pharmacokinetic study in the example were male SPF-grade SD rats (B&K Universal, Shanghai).
Route of administration: a single dose by oral gavage or intravenous injection
Sampling points: 0.083 h, 0.25 h, 0.5 h, 1 h, 2 h, 4 h, 6 h, 8 h and 24 h after administration
Sample processing: 0.2 mL of venous blood was collected, and let stand on ice before centrifugation to separate plasma (centrifugation conditions: 8000 rpm, 6 min, 4° C.). The separated plasma was stored at −80° C. before analysis.
Internal standard working solution: An appropriate amount of tolbutamide internal standard stock solution at 645,000 ng/mL was added into a volumetric flask, and was diluted to the volume with methanol. The solution was well mixed to give an internal standard working solution with a concentration of 50 ng/mL.
Sample pretreatment: 50 μL of plasma was added into a 1.5-mL centrifuge tube, and added with 250 μL of internal standard solution (methanol of the same volume for the blank control). The solution was well mixed by vortex, and centrifuged for 5 min at 14000 rpm. 200 μL of the supernatant was transferred into a 96-well sample feeding plate, and loaded onto a LC-MS/MS system.
Column: ACQUITY UPLC BEH C18 1.7 μm (50 mm×2.10 mm)
Mobile phase: A: 0.1% aqueous formic acid; B: 0.1% formic acid in acetonitrile
The data processing system was Analyst software (Applied Biosystems, USA, ver 1.5.5).

For series [3], the system named is TNF-α release in LPS-induced Balb/c female mice. Kind of series: Inhibition of TNF-α release in LPS-induced Balb/c female mice. The settings on record: oral gavage 5 h before LPS induction, serum 1.5 h after stimulation. The series is classed as in vivo, mouse. The arrangement: concentration or dose not given beside the values. How it is done: In the normal control groups, the animals received an intraperitoneal injection of normal saline (10 mL/kg) and in the model groups, the animals received LPS stimulation (Sigma CAT #L2630, i.p., 10 mL/kg, 0.2 mg/kg). During the assay, to the test compounds, DMSO, Solutol and 10 mM PBS were sequentially added to prepare a solution or suspension of required concentration for administration. For the vehicle, DMSO, Solutol and 10 mM PBS were mixed in a volume ratio of 5:15:80. In each of the groups, the animals were administered through oral gavage (10 mL/kg) 5 h before LPS (or saline) stimulation at predetermined doses, and euthanized with CO2 at 1.5 h after the stimulation for cardiac blood collection. The whole blood was not anticoagulated, incubated in wet ice for 1.5 h, and centrifuged at 2000×g at 4° C. for 10 min to separate the serum. The serum was frozen at −80° C. for TNF-α assay. Quantification of the TNF-α was done with TNF-α ELISA kit according to the manufacturer's instruction.

Where [4] appears, read: 1 mg/kg, intravenous injection, 1 mpk.
[5] abbreviates: 2 mg/kg, oral administration, 2 mpk, 5% DMSO + 15% Solutol + 80% Saline.

Consider `COc1cc2nn(CCN3CC(F)(F)C3)cc2cc1NC(=O)c1cccc(C(F)(F)F)n1` [MY-004-017], for which the IC50 in series [1] amounted to 36 nM.

For the molecule `COc1cc2nn([C@H]3C[C@@H](C(C)(C)O)C3)cc2cc1NC(=O)c1cccc(C(F)(F)F)n1` [MY-004-040], in series [1], the IC50 amounted to 13 nM.

`COc1cc2nn([C@H]3C[C@H](CO)C3)cc2cc1NC(=O)c1cccc(C(F)(F)F)n1` [MY-004-082]: the IC50 in series [1] was 5 nM. Besides, the Cmax in series [2] (1 mg/kg, intravenous injection, 1 mpk, 5% DMSO + 15% Solutol + 80% Saline) is 1320 ng/mL. Further, in series [2] (setting [4]), the AUC(0-t) amounted to 790 ng·h/mL, the AUC(0-inf) stood at 793 ng·h/mL, the MRT turned out to be 0.52 h and the half-life is 30.6 min. In addition, in series [2] (1 mg/kg, intravenous injection, 1 mpk, read-out: Clearance CL), the clearance came to 21.9 mL/min/kg. The Vd in series [2] (1 mg/kg, intravenous injection, 1 mpk, read-out: Volume of distribution at steady state VZ) came to 0.93 L/kg. For the same molecule, in series [2] (setting [5]), the AUC(0-t) is 416 ng·h/mL, the AUC(0-inf) stood at 424 ng·h/mL, the MRT came to 2.69 h and the half-life is 65.4 min. The Cmax in series [2] (setting [5]) amounted to 114 ng/mL. The bioavailability in series [2] (2 mg/kg, oral administration, 2 mpk, 5% DMSO + 15% Solutol + 80% Saline, read-out: Bioavailability F) was 26.3%. Also, the Tmax in series [2] (2 mg/kg, oral administration, 2 mpk, 5% DMSO + 15% Solutol + 80% Saline, read-out: Time to peak tmax) worked out at 30 min.

As to `COc1cc2nn(C3CC(O)C3)cc2cc1NC(=O)c1cccc(C(F)(F)F)n1` (centres unmarked) [MY-004-084], the IC50 in series [1] came out at 9.5 nM.

Consider `COc1cc2nn(C3CC(CO)C3)cc2cc1NC(=O)c1cccc(C(F)(F)F)n1` (centres unmarked) [MY-004-090], for which the IC50 in series [1] was found to be 12.3 nM.

As for `COc1cc2nn([C@H]3C[C@H](C(C)(C)O)C3)cc2cc1NC(=O)c1cccc(C)n1` [MY-004-093], the half-maximal inhibitory concentration (IC50) in series [1] was 13 nM.

On to `COc1cc2nn([C@H]3C[C@H](C(C)(C)O)C3)cc2cc1NC(=O)c1cnc2ccccc2n1` [MY-004-094], for which the IC50 in series [1] stood at 41 nM.

As for `COc1cc2nn([C@H]3C[C@@H](C(=O)OC)C3)cc2cc1NC(=O)c1cccc(C(F)(F)F)n1` [MY-004-099], the 50% inhibitory concentration (IC50) in series [1] was found to be 35 nM.

As to `COc1cc2nn([C@H]3C[C@H](C(=O)OC)C3)cc2cc1NC(=O)c1cccc(C(F)(F)F)n1` [MY-004-100], in series [1], the IC50 worked out at 11 nM.

In the case of `CC(C)(O)c1cc2nn([C@H]3C[C@H](C(C)(C)O)C3)cc2cc1NC(=O)c1cccc(C#N)n1` [MY-004-110], in series [1], the concentration for half-maximal inhibition (IC50) is 48 nM.

In the case of `CN(C)c1cc2nn([C@H]3C[C@H](C(C)(C)O)C3)cc2cc1NC(=O)c1cccc(F)n1` [MY-004-118], in series [1], the IC50 amounted to 16.7 nM.

For the molecule `COc1cc2nn([C@H]3C[C@H](C(C)(C)O)C3)cc2cc1NC(=O)c1cccc(F)n1` [MY-004-119], the concentration for half-maximal inhibition (IC50) in series [1] was 14 nM.

On to `COc1cc2nn([C@H]3CC[C@@H](O)CC3)cc2cc1NC(=O)c1cccc(C(F)(F)F)n1` [MY-004-127-2], for which the IC50 in series [1] turned out to be 4.3 nM.

Consider `COc1cc2nn(C3CC(C)(O)C3)cc2cc1NC(=O)c1cccc(C(F)(F)F)n1` (centres unmarked) [MY-004-128], for which the IC50 in series [1] amounted to 6.6 nM.

Take `CC(C)(O)[C@H]1C[C@H](n2cc3cc(NC(=O)c4cccc(C(F)(F)F)n4)c(-c4ccccn4)cc3n2)C1` [MY-004-146]: in series [1], the IC50 was 6.4 nM.

Regarding `CN(C)c1cc2nn([C@H]3CC[C@@H](O)CC3)cc2cc1NC(=O)c1cccc(C(F)(F)F)n1` [MY-004-154], the IC50 in series [1] is 1.6 nM. Also, the “Inhibition rate of TNF-α” value in series [3] is recorded as 87.82%.

Take `CN(C)c1cc2nn([C@H]3CC[C@](C)(O)CC3)cc2cc1NC(=O)c1cccc(C(F)(F)F)n1` [MY-004-167]: the half-maximal inhibitory concentration (IC50) in series [1] was determined as 2.7 nM.

Consider `COc1cc2nn(C3CC(OC)C3)cc2cc1NC(=O)c1cccc(C(F)(F)F)n1` (centres unmarked) [MY-004-168], for which the IC50 in series [1] was 6.3 nM.

Turning to `O=C(Nc1cc2cn([C@H]3CC[C@H](O)CC3)nc2cc1OCC1CC1)c1cccc(C(F)(F)F)n1` [MY-004-217], the IC50 in series [1] was 2.2 nM.

For the molecule `O=C(Nc1cc2cn([C@H]3CC[C@@H](O)CC3)nc2cc1OCC1CC1)c1cccc(C(F)(F)F)n1` [MY-004-218], the IC50 in series [1] came to 5.1 nM.

On to `C[C@]1(O)CC[C@@H](n2cc3cc(NC(=O)c4cccc(C(F)(F)F)n4)c(-n4cccn4)cc3n2)CC1` [MY-004-227], for which the half-maximal inhibitory concentration (IC50) in series [1] came to 1.7 nM.

As to `C[C@]1(O)CC[C@H](n2cc3cc(NC(=O)c4cccc(C(F)(F)F)n4)c(-n4cccn4)cc3n2)CC1` [MY-004-228], in series [1], the IC50 was found to be 2 nM. Moreover, the “Inhibition rate of TNF-α” value in series [3] stood at 88.46%.

Take `CC(C)(O)[C@H]1C[C@H](n2cc3cc(NC(=O)c4cccc(C(F)(F)F)n4)c(-n4cc(C#N)cn4)cc3n2)C1` [MY-004-229]: the IC50 in series [1] came out at 8.4 nM.

Turning to `CC(C)(O)c1cc2nn([C@H]3CC[C@H](O)CC3)cc2cc1NC(=O)c1cccc(C(F)(F)F)n1` [MY-004-322], the half-maximal inhibitory concentration (IC50) in series [1] worked out at 2.4 nM.

Turning to `CC(C)(O)c1cc2nn([C@H]3CC[C@@H](O)CC3)cc2cc1NC(=O)c1cccc(C(F)(F)F)n1` [MY-004-326], the IC50 in series [1] was 6.9 nM.

Broadly, the IC50 is the point on the concentration scale where inhibition reaches its midpoint. As a reminder, the MRT is the average time that molecules of a dose stay in the body. For orientation: bioavailability means the share of a dose that reaches the circulation, judged against a reference dose that is usually intravenous. A word on the Tmax: it is the time from dosing to the highest level.
